Where two headings read alike, the source gives them in different places.
Tests used:
[1] = tested on: SK-OV-3; assay: Inhibition of cells growth by colorimetric (SRB) assay, SK-OV-3; conditions: SRB assay, 48 hours exposure; for GI50: read-out: GI50 SKOV-3; for CC50: read-out: LC50 SKOV-3
In short: (§1)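 Human tumour cells seeded at 5×10^3/well in RPMI 1640 10% FBS, attached 18 h, then exposed 48 h to samples at 10 to 10^−8 μg/ml in DMSO/EtOH/PBS (0.5:0.5:99). Growth read by SRB staining after TCA fixation, OD 490 nm, triplicate wells; GI, TGI and LC derived.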

[2] = tested on: PANC-1; assay: Inhibition of cells growth by colorimetric (SRB) assay, PANC-1; conditions: SRB assay, 48 hours exposure; for GI50: read-out: GI50 PANC-1
In short: as §1

[3] = tested on: DU-145; assay: Inhibition of cells growth by colorimetric (SRB) assay, DU-145; conditions: for GI50: read-out: GI50 DU-145
In short: as §1

[4] = tested on: LNCaP; assay: Inhibition of cells growth by colorimetric (SRB) assay, LNCaP; conditions: SRB assay, 48 hours exposure; for GI50: read-out: GI50 LN-caP; for CC50: read-out: LC50 LN-caP
In short: as §1

[5] = tested on: K-562; assay: Inhibition of cells growth by colorimetric (SRB) assay, K-562; conditions: SRB assay, 48 hours exposure; for GI50: read-out: GI50 K-562; for CC50: read-out: LC50 K-562
In short: as §1

[6] = tested on: LoVo-Dox; assay: Inhibition of cells growth by colorimetric (SRB) assay, LoVo-Dox; conditions: SRB assay, 48 hours exposure; for GI50: read-out: GI50 LOVO-DOX
In short: as §1

[7] = tested on: HT-29; assay: Inhibition of cells growth by colorimetric (SRB) assay, HT-29; conditions: SRB assay, 48 hours exposure; for GI50: read-out: GI50 HT-29
In short: as §1

[8] = tested on: LoVo; assay: Inhibition of cells growth by colorimetric (SRB) assay, LoVo; conditions: SRB assay, 48 hours exposure; for GI50: read-out: GI50 LOVO; for CC50: read-out: LC50 LOVO
In short: as §1

[9] = tested on: IGROV-ET; assay: Inhibition of cells growth by colorimetric (SRB) assay, IGROV-ET; conditions: SRB assay, 48 hours exposure; for GI50: read-out: GI50 IGROV-ET; for CC50: read-out: LC50 IGROV-ET
In short: as §1

[10] = tested on: SK-BR-3; assay: Inhibition of cells growth by colorimetric (SRB) assay, SK-BR-3; conditions: SRB assay, 48 hours exposure; for GI50: read-out: GI50 SK-BR-3; for CC50: read-out: LC50 SK-BR-3
From the text: (§2) The finality of these assays is to interrupt the growth of a “in vitro” tumor cell culture by means a continued exhibition of the cells to the sample to be testing.
(§3) This form of the assay employs 96 well cell culture microplates of 9 mm diameter (Faircloth, 1988; Mosmann, 1983). Most of the cell lines are obtained from American Type Culture Collection (ATCC) derived from different human cancer types.
(§4) Cells are maintained in RPMI 1640 10% FBS, supplemented with 0.1 g/l penicillin and 0.1 g/l streptomycin sulphate and then incubated at 37° C., 5% CO2 and 98% humidity. For the experiments, cells were harvested from subconfluent cultures using trypsin and resuspended in fresh medium before plating.
(§5) Cells are seeded in 96 well microtiter plates, at 5×10^3 cells per well in aliquots of 195 μl medium, and they are allowed to attach to the plate surface by growing in drug free medium for 18 hours. Afterward, samples are added in aliquots of 5 μl in a ranging from 10 to 10^−8 μg/ml, dissolved in DMSO/EtOH/PBS (0.5:0.5:99). After 48 hours exposure, the antitumor effect are measured by the SRB methodology: cells are fixed by adding 50 μl of cold 50% (wt/vol) trichloroacetic acid (TCA) and incubating for 60 minutes at 4° C. Plates are washed with deionized water and dried. One hundred μl of SRB solution (0.4% wt/vol in 1% acetic acid) is added to each microtiter well and incubated for 10 minutes at room temperature. Unbound SRB is removed by washing with 1% acetic acid. Plates are air dried and bound stain is solubilized with Tris buffer. Optical densities are read on a automated spectrophotometric plate reader at a single wavelength of 490 nm.
(§6) The values for mean +/−SD of data from triplicate wells are calculated. Some parameters for cellular responses can be calculated: GI=growth inhibition, TGI=total growth inhibition (cytostatic effect) and LC=cell killing (cytotoxic effect).

[11] = tested on: A-549; assay: Inhibition of cells growth by colorimetric (SRB) assay, A-549; conditions: SRB assay, 48 hours exposure; for GI50: read-out: GI50 A-549; for CC50: read-out: LC50 A-549
In short: as §1

[12] = tested on: HMEC1; assay: Inhibition of cells growth by colorimetric (SRB) assay, HMEC1; conditions: SRB assay, 48 hours exposure; for TGI H-MEC-1: in M (unit assumed); for GI50: read-out: GI50 H-MEC-1; for CC50: read-out: LC50 H-MEC-1
From the text: as §2, §3, §4, §5, §6

[13] = tested on: SK-MEL-28; assay: Inhibition of cells growth by colorimetric (SRB) assay, SK-MEL-28; conditions: SRB assay, 48 hours exposure; for GI50: read-out: GI50 MEL-28; for CC50: read-out: LC50 MEL-28
In short: as §1

[14] = tested on: IGROV-1; assay: Inhibition of cells growth by colorimetric (SRB) assay, IGROV-1; conditions: SRB assay, 48 hours exposure; for GI50: read-out: GI50 IGROV
In short: as §1

For Nc1nccc(-c2c3cc4ccccc4nc3n3c(N)nccc23)n1 [Compound 19a], the “TGI SKOV-3” value [1] was 4.67E−06, the GI50 [1] was 1140 nM and the CC50 [1] was 21800 nM. The “TGI PANC-1” value [2] was 1.41E−05, the GI50 [2] was 3450 nM and the “TGI DU-145” value ([3]; SRB assay, 48 hours exposure) was 7.94E−07. For the same compound, the GI50 ([3]; SRB assay, 48 hours exposure) was 3.05 nM, the CC50 ([3]; read-out: LC50 DU-145, SRB assay, 48 hours exposure) was 3790 nM and the “TGI LN-caP” value [4] was 2.18E−06. For the same compound, the GI50 [4] was 736 nM, the CC50 [4] was 22500 nM and the “TGI K-562” value [5] was 6.42E−06. For the same compound, the GI50 [5] was 1780 nM, the CC50 [5] was 25000 nM and the “TGI LOVO-DOX” value [6] was 7.51E−06. The GI50 [6] was 1030 nM, the “TGI HT-29” value [7] was 3.05E−05 and the GI50 [7] was 1940 nM. The “TGI LOVO” value [8] was 2.74E−06, the GI50 [8] was 467 nM and the CC50 [8] was 11100 nM. For the same compound, the “TGI IGROV-ET” value [9] was 4.98E−06, the GI50 [9] was 1410 nM and the CC50 [9] was 14500 nM. The “TGI SK-BR-3” value [10] was 1.68E−06, the GI50 [10] was 477 nM and the CC50 [10] was 8580 nM. The “TGI A-549” value [11] was 7.64E−06, the GI50 [11] was 3240 nM and the CC50 [11] was 18000 nM. The “TGI H-MEC-1” value [12] was 6.72E−07, the GI50 [12] was 123 nM and the CC50 [12] was 3820 nM. For the same compound, the “TGI MEL-28” value [13] was 5.16E−06, the GI50 [13] was 1460 nM and the CC50 [13] was 13100 nM. For the same compound, the “TGI IGROV” value [14] was 9.56E−06 and the GI50 [14] was 1850 nM.
With Cc1ccc2c(-c3ccnc(N)n3)c3ccnc(N)n3c2n1 [Compound 24] the “TGI SKOV-3” value [1] was 1.00E−05, the GI50 [1] was 1390 nM and the CC50 [1] was ≥ 34300 nM. The “TGI PANC-1” value [2] was 2.06E−05, the GI50 [2] was 3880 nM and the CC50 ([2]; read-out: LC50 PANC-1) was ≥ 34300 nM. The CC50 ([3]; Homo sapiens, DU-145, 48 h, read-out: LC50 DU-145, SRB assay, 48 hours exposure) was 15600 nM, the “TGI DU-145” value ([3]; SRB assay, 48 hours exposure) was 1.91E−06 and the GI50 ([3]; SRB assay, 48 hours exposure) was 831 nM. For the same compound, the “TGI LN-caP” value [4] was 7.24E−07, the GI50 [4] was 174 nM and the CC50 [4] was ≥ 34300 nM. The “TGI K-562” value [5] was 7.35E−06, the GI50 [5] was 1620 nM and the CC50 [5] was 22200 nM. The “TGI LOVO-DOX” value [6] was 3.43E−06, the GI50 [6] was 642 nM and the CC50 ([6]; read-out: LC50 LOVO-DOX) was ≥ 34300 nM. The “TGI HT-29” value [7] was 3.43E−05, the GI50 [7] was 16400 nM and the CC50 ([7]; read-out: LC50 HT-29) was ≥ 34300 nM. For the same compound, the “TGI LOVO” value [8] was 1.22E−06, the GI50 [8] was 325 nM and the CC50 [8] was > 34300 nM. For the same compound, the “TGI IGROV-ET” value [9] was 7.11E−06, the GI50 [9] was 1010 nM and the CC50 [9] was ≥ 34300 nM. For the same compound, the “TGI SK-BR-3” value [10] was 4.77E−06, the GI50 [10] was 1040 nM and the CC50 [10] was 10400 nM. The “TGI A-549” value [11] was 6.87E−06, the GI50 [11] was 1380 nM and the CC50 [11] was 17500 nM. The “TGI H-MEC-1” value [12] was 7.86E−07, the GI50 [12] was 247 nM and the CC50 [12] was 2670 nM. The “TGI MEL-28” value [13] was 3.43E−06, the GI50 [13] was 721 nM and the CC50 [13] was 12600 nM. The “TGI IGROV” value [14] was 6.38E−06, the GI50 [14] was 995 nM and the CC50 ([14]; read-out: LC50 IGROV) was 23000 nM.

Reference: patent US7772241B2, “Variolin derivatives and their use as antitumor agents” (Pharma Mar S.A., priority 2001, dated 2010)
